Laboratory results reported in PMC10460844, “Real‐Time Monitoring of Multitarget Antimicrobial Mechanisms of Peptoids Using Label‐Free Imaging with Optical Diffraction Tomography” (Advanced Science, 2023).
Numbered stars: 1 amine (or outer) side, 2 acyl side, 3 side chain; on linkers, the order of the positions; unused ones are H or OH. Square brackets hold non-standard residues; d marks the D form. Peptide text beside a SMILES is read from it. Gly(N(CH2)2(3-indolyl)) = O=C(O)CNCCc1c[nH]c2ccccc12; Nspe = C[C@H](NCC(=O)O)c1ccccc1; X1 = O=C(CN(CCCCO)[*:1])[*:2]; Nphe = O=C(O)CNCc1ccccc1; Nlys = NCCCCNCC(=O)O

Key:
[1] = Analytical reversed-phase HPLC elution (hydrophobicity); type: physicochemical; conditions: Table S1; analytical RP-HPLC, SunFire C18, water/ACN + 0.1% TFA, 5 to 100% B linear over 30 min, 1 mL/min, UV 220 nm; approximate comparison of hydrophobicity
Method: 7. HPLC chromatogram, retention time (tR), and LC-MS data
HPLC analysis of peptoids was conducted using a Waters HPLC system equipped with a Waters 2489 UV/Visible Detector, 1525 Binary HPLC Pump, 2707 Autosampler, 5CH column oven, and a C18 column (SunFire C18, 4.6 × 250 mm, 5 μm; Waters Corp., Milford, MA, USA). The mobile phases were deionized water (A, with + 0.1% TFA) and acetonitrile (ACN; B, with + 0.1% TFA). Before sample injection, the column was conditioned with 5% B for 10 min. Then, the mobile phase was maintained at 5% B for 2 min, followed by increasing B to 100% using a linear gradient over 30 min. At this point, 100% B was maintained for 5 additional min. The flow rate of the mobile phase was 1 mL/min. The sample was detected by measuring absorbance at 220 nm. […]

rat erythrocytes = experiment: Hemolysis assay; type: cell-based; conditions: for HC10 / HC50: pH 7.4
Method: The hemolysis assay was performed using rat erythrocytes in phosphate‐buffered saline (PBS), as reported by Mendes et al.^[ [45] ^] Animal studies were approved by the Laboratory Animal Resource Center of Gwangju Institute of Science and Technology. Blood was collected from a 13‐week‐old male Sprague‐Dawley rat in tubes containing 158 USP units of sodium heparin to prevent coagulation and centrifuged at 1000 rpm for 10 min at 4 °C. Plasma was removed carefully and erythrocyte pellets were washed three times with PBS (35 mM phosphate, pH 7.4, 150 mM NaCl). Next, 150 µL of a 10% erythrocyte suspension was mixed with 50 µL of serially diluted peptoids (0–100 µM) in a 96‐well black polypropylene plates (Greiner, Kremsmünster, Austria). Untreated erythrocytes and cells lysed by the addition of 1% Triton X‐100 were used as negative and positive controls, respectively, with the 1% Triton X‐100‐treated wells being accepted to represent 100% hemolysis. The reaction mixture was incubated at 37 °C for 60 min, and the plates were centrifuged at 1000 rpm for 15 min. Aliquots (150 µL) of the supernatant were transferred to fresh 96‐well plates, and the absorbance of each well was measured at 540 nm using a microplate reader. Hemolysis induced by peptoids was calculated as the percentage value of Triton X‐100 lysed cells. The percentage of hemolysis by the extracts was calculated according to the following formula: % hemolysis = [(Abs 540 nm in the peptoid solution – Abs 540 nm in PBS) / (Abs 540 nm in 1% Triton X‐100 – Abs 540 nm in PBS)] × 100. HC10 and HC50 were defined as the peptoid concentrations that caused 10% and 50% hemolysis in rat erythrocytes, respectively. H max indicates the percentage of hemolysis observed at the maximum peptoid concentration, 100 µM throughout this study.

NCCCCNCC(=O)N(CC(=O)N(CC(=O)N(CCCCN)CC(=O)N(CC(=O)N(CC(=O)N(CCCCN)CC(=O)N(CC(=O)N(CC(=O)N(CCCCN)CC(=O)N(CC(=O)N(CC(N)=O)Cc1ccccc1)Cc1ccccc1)Cc1ccccc1)Cc1ccccc1)Cc1ccccc1)Cc1ccccc1)Cc1ccccc1)Cc1ccccc1 [peptoid 2, reference compound] (H-[Nlys][Nphe][Nphe][Nlys][Nphe][Nphe][Nlys][Nphe][Nphe][Nlys][Nphe][Nphe]-NH2)
HPLC elution [1]: 50.7 % MeCN | Hmax (100 µM) (rat erythrocytes): 17.7±1.1% | HC10 (rat erythrocytes): 20.4 µM | HC50 (rat erythrocytes): > 100.0 µM

C[C@@H](c1ccccc1)N(CC(N)=O)C(=O)CN(C(=O)CN(CCCCN)C(=O)CN(C(=O)CN(C(=O)CN(CCCCN)C(=O)CN(C(=O)CN(C(=O)CN(CCCCN)C(=O)CN(C(=O)CN(C(=O)CN(CCCCN)C(=O)CNCCc1c[nH]c2ccccc12)[C@@H](C)c1ccccc1)[C@@H](C)c1ccccc1)[C@@H](C)c1ccccc1)[C@@H](C)c1ccccc1)[C@@H](C)c1ccccc1)[C@@H](C)c1ccccc1)[C@@H](C)c1ccccc1 [peptoid 3]
HPLC elution [1]: 55.8 % MeCN | Hmax (100 µM) (rat erythrocytes): 100.5±9.9% | HC10 (rat erythrocytes): 6.3 µM | HC50 (rat erythrocytes): 13.9 µM

C[C@@H](c1ccccc1)N(CC(N)=O)C(=O)CN(CCCCN)C(=O)CN(C(=O)CN(CCCCN)C(=O)CN(CCCCN)C(=O)CN(C(=O)CN(C(=O)CN(CCCCN)C(=O)CN(C(=O)CN(C(=O)CNCCCCN)[C@@H](C)c1ccccc1)[C@@H](C)c1ccccc1)[C@@H](C)c1ccccc1)[C@@H](C)c1ccccc1)[C@@H](C)c1ccccc1 [peptoid 50]
HPLC elution [1]: 46.1 % MeCN

C[C@@H](c1ccccc1)N(CC(N)=O)C(=O)CN(CCCCN)C(=O)CN(C(=O)CN(C(=O)CN(CCCCN)C(=O)CN(C(=O)CN(CCCCN)C(=O)CN(CCCCN)C(=O)CN(C(=O)CN(C(=O)CNCCCCN)[C@@H](C)c1ccccc1)[C@@H](C)c1ccccc1)[C@@H](C)c1ccccc1)[C@@H](C)c1ccccc1)[C@@H](C)c1ccccc1 [peptoid 51]
HPLC elution [1]: 45.3 % MeCN

C[C@@H](c1ccccc1)N(CC(N)=O)C(=O)CN(CCCCN)C(=O)CN(C(=O)CN(C(=O)CN(CCCCN)C(=O)CN(C(=O)CN(C(=O)CN(CCCCN)C(=O)CN(C(=O)CN(CCCCN)C(=O)CNCCCCN)[C@@H](C)c1ccccc1)[C@@H](C)c1ccccc1)[C@@H](C)c1ccccc1)[C@@H](C)c1ccccc1)[C@@H](C)c1ccccc1 [peptoid 52]
HPLC elution [1]: 46.9 % MeCN

C[C@H](NCC(=O)N(CCCCN)CC(=O)N(CC(=O)N(CC(=O)N(CCCCN)CC(=O)N(CC(=O)N(CC(=O)N(CCCCN)CC(=O)N(CC(=O)N(CC(=O)N(CCCCN)CC(=O)N(CCCCN)CC(N)=O)[C@@H](C)c1ccccc1)[C@@H](C)c1ccccc1)[C@@H](C)c1ccccc1)[C@@H](C)c1ccccc1)[C@@H](C)c1ccccc1)[C@@H](C)c1ccccc1)c1ccccc1 [peptoid 53] (H-[Nspe][Nlys][Nspe][Nspe][Nlys][Nspe][Nspe][Nlys][Nspe][Nspe][Nlys][Nlys]-NH2)
HPLC elution [1]: 48.5 % MeCN

C[C@H](NCC(=O)N(CCCCN)CC(=O)N(CC(=O)N(CC(=O)N(CCCCN)CC(=O)N(CC(=O)N(CC(=O)N(CCCCN)CC(=O)N(CCCCN)CC(=O)N(CC(=O)N(CCCCN)CC(=O)N(CC(N)=O)[C@@H](C)c1ccccc1)[C@@H](C)c1ccccc1)[C@@H](C)c1ccccc1)[C@@H](C)c1ccccc1)[C@@H](C)c1ccccc1)[C@@H](C)c1ccccc1)c1ccccc1 [peptoid 54] (H-[Nspe][Nlys][Nspe][Nspe][Nlys][Nspe][Nspe][Nlys][Nlys][Nspe][Nlys][Nspe]-NH2)
HPLC elution [1]: 48.1 % MeCN

C[C@H](NCC(=O)N(CCCCN)CC(=O)N(CC(=O)N(CC(=O)N(CCCCN)CC(=O)N(CCCCN)CC(=O)N(CC(=O)N(CCCCN)CC(=O)N(CC(=O)N(CC(=O)N(CCCCN)CC(=O)N(CC(N)=O)[C@@H](C)c1ccccc1)[C@@H](C)c1ccccc1)[C@@H](C)c1ccccc1)[C@@H](C)c1ccccc1)[C@@H](C)c1ccccc1)[C@@H](C)c1ccccc1)c1ccccc1 [peptoid 55] (H-[Nspe][Nlys][Nspe][Nspe][Nlys][Nlys][Nspe][Nlys][Nspe][Nspe][Nlys][Nspe]-NH2)
HPLC elution [1]: 47.2 % MeCN

C[C@H](NCC(=O)N(CCCCN)CC(=O)N(CCCCN)CC(=O)N(CC(=O)N(CCCCN)CC(=O)N(CC(=O)N(CC(=O)N(CCCCN)CC(=O)N(CC(=O)N(CC(=O)N(CCCCN)CC(=O)N(CC(N)=O)[C@@H](C)c1ccccc1)[C@@H](C)c1ccccc1)[C@@H](C)c1ccccc1)[C@@H](C)c1ccccc1)[C@@H](C)c1ccccc1)[C@@H](C)c1ccccc1)c1ccccc1 [peptoid 56] (H-[Nspe][Nlys][Nlys][Nspe][Nlys][Nspe][Nspe][Nlys][Nspe][Nspe][Nlys][Nspe]-NH2)
HPLC elution [1]: 48.0 % MeCN

C[C@@H](c1ccccc1)N(CC(=O)N(CCCCN)CC(=O)N(CC(=O)N(CC(=O)N(CCCCN)CC(=O)N(CC(=O)N(CC(=O)N(CCCCN)CC(=O)N(CCCCN)CC(N)=O)[C@@H](C)c1ccccc1)[C@@H](C)c1ccccc1)[C@@H](C)c1ccccc1)[C@@H](C)c1ccccc1)C(=O)CN(C(=O)CN(CCCCN)C(=O)CNCCc1c[nH]c2ccccc12)[C@@H](C)c1ccccc1 [peptoid 57] (H-[Gly(N(CH2)2(3-indolyl))][Nlys][Nspe][Nspe][Nlys][Nspe][Nspe][Nlys][Nspe][Nspe][Nlys][Nlys]-NH2)
HPLC elution [1]: 49.1 % MeCN

C[C@@H](c1ccccc1)N(CC(N)=O)C(=O)CN(CCCCN)C(=O)CN(C(=O)CN(CCCCN)C(=O)CN(CCCCN)C(=O)CN(C(=O)CN(C(=O)CN(CCCCN)C(=O)CN(C(=O)CN(C(=O)CN(CCCCN)C(=O)CNCCc1c[nH]c2ccccc12)[C@@H](C)c1ccccc1)[C@@H](C)c1ccccc1)[C@@H](C)c1ccccc1)[C@@H](C)c1ccccc1)[C@@H](C)c1ccccc1 [peptoid 58]
HPLC elution [1]: 48.7 % MeCN

C[C@@H](c1ccccc1)N(CC(N)=O)C(=O)CN(CCCCN)C(=O)CN(C(=O)CN(C(=O)CN(CCCCN)C(=O)CN(C(=O)CN(CCCCN)C(=O)CN(CCCCN)C(=O)CN(C(=O)CN(C(=O)CN(CCCCN)C(=O)CNCCc1c[nH]c2ccccc12)[C@@H](C)c1ccccc1)[C@@H](C)c1ccccc1)[C@@H](C)c1ccccc1)[C@@H](C)c1ccccc1)[C@@H](C)c1ccccc1 [peptoid 59]
HPLC elution [1]: 47.8 % MeCN

C[C@@H](c1ccccc1)N(CC(N)=O)C(=O)CN(CCCCN)C(=O)CN(C(=O)CN(C(=O)CN(CCCCN)C(=O)CN(C(=O)CN(C(=O)CN(CCCCN)C(=O)CN(C(=O)CN(CCCCN)C(=O)CN(CCCCN)C(=O)CNCCc1c[nH]c2ccccc12)[C@@H](C)c1ccccc1)[C@@H](C)c1ccccc1)[C@@H](C)c1ccccc1)[C@@H](C)c1ccccc1)[C@@H](C)c1ccccc1 [peptoid 60]
HPLC elution [1]: 48.6 % MeCN

NC(=O)CN(CCc1c[nH]c2ccccc12)C(=O)CN(CCc1c[nH]c2ccccc12)C(=O)CN(CCCCO)C(=O)CN(CCc1c[nH]c2ccccc12)C(=O)CN(CCc1c[nH]c2ccccc12)C(=O)CN(CCCCO)C(=O)CN(CCc1c[nH]c2ccccc12)C(=O)CN(CCc1c[nH]c2ccccc12)C(=O)CN(CCCCO)C(=O)CN(CCc1c[nH]c2ccccc12)C(=O)CN(CCc1c[nH]c2ccccc12)C(=O)CNCCCCO [peptoid 65] (H-[X1][Gly(N(CH2)2(3-indolyl))][Gly(N(CH2)2(3-indolyl))][X1][Gly(N(CH2)2(3-indolyl))][Gly(N(CH2)2(3-indolyl))][X1][Gly(N(CH2)2(3-indolyl))][Gly(N(CH2)2(3-indolyl))][X1][Gly(N(CH2)2(3-indolyl))][Gly(N(CH2)2(3-indolyl))]-NH2)
HPLC elution [1]: 66.7 % MeCN

C[C@@H](c1ccccc1)N(CC(=O)N(CCCCO)CC(=O)N(CCc1c[nH]c2ccccc12)CC(=O)N(CCc1c[nH]c2ccccc12)CC(N)=O)C(=O)CN(CCCCO)C(=O)CN(CCCCO)C(=O)CN(C(=O)CN(C(=O)CN(CCCCO)C(=O)CN(C(=O)CN(C(=O)CNCCCCO)[C@@H](C)c1ccccc1)[C@@H](C)c1ccccc1)[C@@H](C)c1ccccc1)[C@@H](C)c1ccccc1 [peptoid 66]
HPLC elution [1]: 64.7 % MeCN
